Reference: patent US20140272066A1, “GLUTAMIC ACID DERIVATIVES” (Givaudan S.A., priority 2011, published 2014)

Assays:
[1] = Flavourist taste panel, solution B (with compound) rated against reference solution A; assay type: in vivo, human; conditions: 10 ppm compound in 0.5% NaCl and 0.03% MSG, vs solution A; scale -3 (much lower than base) to 3 (much higher); average of 4 flavourists
Experimental: Two solutions were prepared:
The samples were tasted by a small group of flavourists (2 male, 2 female, aged between 30 and 60). The intensity of the umami and salt taste of solution B was compared with that of the reference (solution A) and rated according to the following intensity scale:
The results (average of ratings given by the flavourists) were: […]

[2] = Flavourist comparison of bouillon with and without compound; assay type: in vivo, human; conditions: 200 ppm in bouillon; 4 flavourists
Experimental: A bouillon mix was prepared from 155.0 g of sodium chloride, 157.0 g of dextrose monohydrate (ex Tapioca), 0.2 g of celery oleoresin, 0.3 g of oleoresin turmeric Vegex, 0.2 g of oleoresin coriander seed, 444.8 g maltodextrin 5-8 DE, 40.0 g vegetable oil soya bean refined, 30.0 g yeast standard light, 4.0 g of onion powder, 4.0 g of garlic powder, 0.5 g of white pepper and 164.0 g of potato starch.
32 g of the well-mixed ingredients was added to 1 L of boiling water and stirred until completely dissolved.
A small group of flavourists (2 male, 2 female) compared the taste of the reference bouillon with that of a batch of the same bouillon containing 200 ppm of DL-threo-3-methylglutamic acid.

[3] = Flavourist comparison of white sauce with and without compound; assay type: in vivo, human; conditions: 200 ppm in white sauce; 4 flavourists
Experimental: A white sauce mix was prepared from 380 g of modified starch Prejel, 200 g of whey powder Esprion 300, 200 g of fat powder (ex DMV), 115 g of sodium chloride, 85.3 g of maltodextrin 14, 3 g of onion powder, 0.2 g of curcuma extract powder (ex turmeric), 1.5 g of white pepper and 15 g of probase high impact.
80 g of the well-mixed ingredients was added to 1 L of boiling water and stirred well.
A small group of flavourists (2 male, 2 female) compared the taste of the reference white sauce with that of a batch of the same white sauce containing 200 ppm of DL-threo-3-methylglutamic acid.

[4] = Flavourist comparison of Béchamel sauce with cheese with and without compound; assay type: in vivo, human; conditions: 200 ppm in Béchamel sauce with cheese; 4 flavourists
Experimental: A Béchamel sauce with cheese was prepared from 70 g of butter, 50 g of flower, 1000 g of milk, 5 g of sodium chloride, 0.3 g of MSG, 0.15 g of nutmeg powder, 0.25 g of black pepper and 80 g of cheese powder. A blanc roux was prepared from the butter and flower before adding the other ingredients.
A small group of flavourists (2 male, 2 female) compared the taste of the reference Béchamel sauce with cheese with that of a batch of the same Béchamel sauce with cheese containing 200 ppm of DL-threo-3-methylglutamic acid.

[5] = at concentrations comparable to MSG; cited from earlier work

SMILES | Intensity Taste Salt (NaCl) [1] | Intensity Taste Umami [1] | Taste of test bouillon compared with reference bouillon [2] | Taste of test white sauce compared with reference sauce [3] | Taste of test Béchamel sauce with cheese compared with reference [4] | Umami taste [5]
CC(CC(=O)O)C(N)C(=O)O (racemic) [DL-threo-3-methylglutamic acid, DL-threo-3-methylglutamic Acid] | 0.33 | 1.00 | more umami, had an enhanced body of salt and was more salivating | fuller and slightly more umami | richer and more longlasting | –
CCCCCC(CC(=O)O)C(N)C(=O)O (stereo not shown) [2-amino-3-pentylpentanedioic acid, 2-amino-3-pentylpentanedioic Acid] | 0.00 | 0.33 | – | – | – | –
CCCC(CC(=O)O)C(N)C(=O)O (stereo not shown) [2-amino-3-propylpentanedioic acid, 2-amino-3-propylpentanedioic Acid] | 0.33 | 0.33 | – | – | – | –
N[C@@H](CC(=O)O)C(=O)O [aspartic acid] | – | – | – | – | – | hardly any umami taste
